In patent publication US8153599B1, “Compounds with the biological activity of vasoactive intestinal peptide for the treatment of pulmonary and arteriolar hypertension” (Mondobiotech AG, priority 2000, dated 2012):
Read-outs that look alike come from different tables or passages of the source. Values belong to the molecule of their own block, whether it stands above or below them. No end group written: not given here.

Assays:
[1] = Acute testing of inhaled peptide in PPH patient, right heart catheterisation (pulmonary hemodynamics and gas exchange); format: in vivo, human; settings: for mean pulmonary artery pressure (mPAP) after inhalation: 100 μg inhaled for 15 minutes, measured 15 minutes after, baseline 63 (VIP) / 65 (PACAP) mmHg; for PVR after inhalation / SvO2 after inhalation / PaO2 after inhalation: 100 μg inhaled; for PVR after inhalation: baseline 12 (VIP) / 13 (PACAP) woods; for SvO2 after inhalation: baseline 61% (VIP) / 59% (PACAP); for PaO2 after inhalation: baseline 91%
Protocol: A patient with severe PPH was under therapy with diltiazem, furosemid and an anticoagulant. Right heart catheterisation (Swan-Ganz, Baxter, Irvine, Calif., USA) was performed to measure mean pulmonary artery pressure (mpap), cardiac output (CO), mean arterial pressure (MAP), pulmonary capillary wedge pressure (PCWP) mixed venous oxygen saturation (SvO2%) and systemic arterial oxygen pressure (PaO2%). VIP (100 μg in 3 ml NaCl 0.9%) was inhaled for 15 minutes via the MicroDrop Master Jet (MPV, Truma, Germany) using a particle size of 3 μm to provide alveolar deposition of the substance. Alternatively VIP was injected i.v. 20 (ng/kg.b.w./min) via portable pump system (CADD-1, Pharmacia-Upjohn, Vienna, Austria). Pulmonary homodynamic and gas exchange were measured before and 15 minutes after inhalation or i.v. injection of VIP. Right heart catheterisation was performed in the intensive care unit. The patient was monitored on-line electrocardiographically, invasive blood pressure and systemic arterial oxygen saturation (SaO2%) (Hewlett Packard, Böblingen, Germany) were measured. All hemodynamic and oxygen measurements were performed with a cardiac output computer (Explorer, Baxter) and a pressure monitoring kit (Baxter, Irvine, Calif., USA). Calculations were made according to the standard equations in a […] by taking blood from the radial and pulmonary artery (Automatic blood gas system, AVL-995-Hb, Austria). At baseline (before inhalation of VIP), mPAP was 63 mmHg, CI 3.6 l·min^−1, PVR 12 woods, PCWP 9 mmHg, PaO2 91% and SvO2 61%. Addition of 100 μg inhaled VIP improved pulmonary hemodynamic parameters; mPAP decreased to 49 mmHg and PVR to 9 woods. PaO2 to 93% and SvO2 to 63% compared to baseline.
A patient with severe PPH was under therapy with diltiazem, furosemid and an anticoagulant. Right heart catheterisation (Swan-Ganz, Baxter, Irvine, Calif., USA) was performed to measure mean pulmonary artery pressure (mpap), cardiac output (CO), mean arterial pressure (mAP), pulmonary capillary wedge pressure (PCWP) mixed venous oxygen saturation (SvO2%) and systemic arterial oxygen pressure (PaO2%). PACAP (100 μg in 3 ml NaCl 0.9%) was inhaled for 15 minutes via the MicroDrop Master Jet (MPV, Truma, Germany) using a particle size of 3 μm to provide alveolar deposition of the substance. Pulmonary hemodynamics and gas exchange were measured before and 15 minutes after inhalation of PACAP. Right heart catheterisation was performed in the intensive care unit. The patient was monitored on-line electrocardiographically, invasive blood pressure and systemic arterial oxygen saturation (SaO2%) (Hewlett Packard, Böblingen, Germany) were measured. All hemodynamic and oxygen measurements were performed with a cardiac output computer (Explorer, Baxter) and a pressure monitoring kit (Baxter, Irvine, Calif., USA). Calculations were made according to the standard equations in a patient data management system (CareVue 9000, Hewlett Packard, Böblingen, Germany). Blood gas analysis was performed by taking blood from the radial and pulmonary artery (Automatic blood gas system, AVL-995-Hb, Austria). At baseline (before inhalation of PACAP), mPAP was 65 mmHg, CI 3.2 l·min^−1, PVR 13 woods, PCWP 10 mmHg, PaO2 91% and SvO2 59%. Addition of 100 μg inhaled PACAP improved pulmonary hemodynamic parameters; mpap decreased to 45 mmHg and PVR to 8 woods. PaO2 increased to 93% and SvO2 to 62% compared to baseline.

[2] = Inhaled VIP in COPD patient with secondary pulmonary hypertension (SPH); format: in vivo, human
Protocol: A patient suffering from Chronic Obstructive Pulmonary Disease (COPD) with secondary pulmonary hypertension (SPH) (mPAP 32 mmHg) was tested for their response to inhaled VIP (200 μg in 3 ml NaCl 0.9%) The inhalation of VIP led to a decrease of mPAP from 32 mmHg to 25 mmHg. This effect was paralleled by increase of cardiac output from 4.1 l·min^−1 to 4.8 l·min^−1.

[3] = i.v. VIP in patient with severe essential arteriolar hypertension, intraarterial blood pressure monitoring; format: in vivo, human; settings: 20 ng/kg/min i.v.
Protocol: FIG. 7: The effect of VIP on systolic and diastolic blood pressure in a patient with essential hypertension after intravenous injection. The patient received VIP at 20 ng/kg/b.w./min. Blood pressure was measured intraarterially. Y-axis: pressure (mmHg), x-axis: time (min).
A patient with severe essential arteriolar hypertension is under treatment with nifedipine and enalapril. Systolic and diastolic systemic arterial pressure (SAP) were measured by intraarterial monitoring. VIP (20 ng/kg/min) was injected i.v. via a portable pump system (CADD-1, Pharmacia-Upjohn, Vienna, Austria). […] Before injection of VIP, the systolic pressure (SAP) was 165 mmHg and the diastolic (DAP) was 110 mmHg.

[4] = system: human pulmonary arterial rings; test: Vasodilatory effect on human pulmonary arterial rings (vascular tone in vitro); format: cell-based; settings: after increase of tone by 80 mmol K+, increasing concentrations (FIG. 6)
Description: FIG. 6: Vasodilatory effect of VIP on human pulmonary arterial rings. Arteries of patients subjected to thorax surgery were surgically removed and tested in vitro under standardized procedures for their vascular tone.

[5] = system: Nitric oxide synthetase (ecnos); test: Nitric oxide synthetase (ecnos) expression in endothelial cells from pulmonary arteries, Western blot; format: cell-based, human; settings: 10^−7 M, normoxic and hypoxic conditions, 96 hours (FIG. 8)
Protocol: FIG. 8: Nitric oxide synthetase (ecnos) expression in endothelial cells prepared from pulmonary arteries of control subjects after 96 hours of incubation. Cells were incubated with VIP (10^−7 M) under normoxic (−) and hypoxic (+) conditions for various times. Western blots reveal constitutive expression under normoxic conditions without VIP.
(§1) While VIP-R mRNA accumulation is easily detectable PPH, only low levels of VIP-R mRNA accumulation can be detected in healthy controls (FIG. 3). Analogously an increased receptor binding activity for VIP is seen in primary cultures of pulmonary artery vascular smooth muscle cells (PaVSMC) prepared from pulmonary resistance vessels of PPH patients compared to healthy subjects (FIGS. 4a and 4b). […] Pharmacologically, nitric oxide induces vasodilatation by lowering the intracellular free calcium concentration of PaVSMC.

[6] = system: VSMC prepared from pulmonary arteries; test: Interleukin1-b induced elevation of intracellular free calcium in VSMC from pulmonary arteries, fura-2 method; format: cell-based, human; settings: VIP 250 ng/ml and 500 ng/ml (FIG. 9)
Protocol: FIG. 9: The effect of VIP on the interleukin1-b induced elevation of intracellular free calcium concentration in VSMC prepared from pulmonary arteries. Ordinate-Ca2+ (nmol). 1-basal concentration; 2-interleukin1-b; 3-interleukin1-b plus VIP 250 ng/ml and 4-VIP 500 ng/ml intracellular calcium concentration during incubation with VIP; Ca 2+ was determined by fura-2 method.
as §1

[7] = system: VSMC from pulmonary arterial vessel; test: Proliferation of VSMC from pulmonary arterial vessel; format: cell-based, human; settings: 10^−12 M to 10^−9 M (FIG. 10)
Description: FIG. 10: The effect of VIP on the proliferation of VSMC from pulmonary arterial vessel. Ordinate-proliferation as percent of control. 1-without VIP; 2-10^−12M VIP; 3-10^−11M VIP; 4-10^−10M VIP; 5-10^−9M VIP.
as §1

[8] = Acute testing of inhaled peptide in PPH patient, right heart catheterisation (pulmonary hemodynamics and gas exchange); format: in vivo, human; settings: for time dependence of mPAP decrease: 100 μg inhaled (FIG. 5b)
[9] = system: isolated VSMC prepared from pulmonary arteries; test: Binding of 99 mTc-VIP to isolated VSMC prepared from pulmonary arteries; parameters: species or system human; settings: for Kd: read-out: binding affinity Kd
Description: FIG. 4: Binding of 99 mTc-VIP to isolated VSMC prepared from pulmonary arteries of PPH patients (4b) and control patients (4a).
as §1

[10] = target: VIP receptor (VIP-R) on vascular smooth muscle cells prepared from human pulmonary arteries (human); test: radioligand binding of 99mTc-VIP to isolated VSMC from pulmonary arteries of PPH patients (FIG. 4b)
[11] = target: VIP receptor (VIP-R) on vascular smooth muscle cells prepared from human pulmonary arteries (human); test: radioligand binding of 99mTc-VIP to isolated VSMC from pulmonary arteries of control patients (FIG. 4a)
[12] = VSMC of control patients (FIG. 4a)

Molecule: His-Ser-Asp-Ala-Val-Phe-Thr-Asp-Asn-Tyr-Thr-Arg-Leu-Arg-Lys-Gln-Met-Ala-Val-Lys-Lys-Tyr-Leu-Asn-Ser-Ile-Leu-Asn (HSDAVFTDNYTRLRKQMAVKKYLNSILN; listed as Homo sapiens) [VIP, 28 amino acid peptide hormone]
mean pulmonary artery pressure (mPAP) after inhalation [1]: 49 mmHg
PVR after inhalation [1]: 9 woods
SvO2 after inhalation [1]: 63%
PaO2 after inhalation [1]: 93%
mPAP after inhalation ([2]; 200 μg in 3 ml NaCl 0.9% inhaled, from 32 mmHg): 25 mmHg
cardiac output after inhalation ([2]; 200 μg inhaled, from 4.1 l·min^−1): 4.8 L/min
diastolic pressure (DAP) after application ([3]; before 110 mmHg): 90 mmHg
systolic pressure (SAP) after application ([3]; before 165 mmHg): 145 mmHg
vessel tone [4]: continuous decrease of the vessel tone
ecnos expression [5]: increased expression of ecnos above constitutional level
intracellular free calcium concentration [6]: decrease of the intracellular free calcium concentration
proliferation of PaVSMC [7]: inhibits the proliferation
time dependence of mPAP decrease ([8]; PPH patient): Time dependant decrease
dose dependence of mPAP decrease ([8]; PPH patient, increased inhaled doses (FIG. 5a)): dose-dependently decrease
dose of maximum efficacy on mPAP ([8]; PPH patient, inhaled): 100 µg

Molecule: His-Ser-Asp-Gly-Ile-Phe-Thr-Asp-Ser-Tyr-Ser-Arg-Tyr-Arg-Lys-Gln-Met-Ala-Val-Lys-Lys-Tyr-Leu-Ala-Ala-Val-Leu-Gly-Lys-Arg-Tyr-Lys-Gln-Arg-Val-Lys-Asn-Lys (HSDGIFTDSRYSRYRKQMAVKKYLAAVLGKRYKQRVNK; listed as Homo sapiens) [PACAP, neuropeptide of 38 amino acid residues]
mean pulmonary artery pressure (mPAP) after inhalation [1]: 45 mmHg
PVR after inhalation [1]: 8 woods
SvO2 after inhalation [1]: 62%
PaO2 after inhalation [1]: 93%
time dependence of mPAP decrease ([8]; PPH patient): time-dependently decrease
CI ([8]; Table 1, after, mean, before mean 2.7): 3.2
PCWP ([8]; Table 1, after, mean, before mean 8.6): 8.5
mPAP ([8]; Table 1, after, mean, before mean 57.1): 44.4
SvO2 ([8]; Table 1, after, mean, before mean 60.0): 62.5
PaO2 ([8]; Table 1, after, mean, before mean 66.8): 69.3
mAP ([8]; Table 1, after, mean, before mean 84.5): 81.0
PVR ([8]; Table 1, after, mean, before mean 906.4): 544.1

Results, then the molecule that gave them:

specific binding Bmax ([9]; VSMC of PPH patients (FIG. 4b)): 0.9 pm per mg protein
Kd ([9]; VSMC of PPH patients (FIG. 4b)): 1.6 pM
specific binding Bmax [9, 12]: 0.6 pm per mg protein
Kd [9, 12]: 42 pM
Molecule: 99 mTc-VIP: radiolabeled VIP

Bmax (pm per mg protein) [10]: 0.9
Kd [10]: 1.6 pM
Bmax (pm per mg protein) [11]: 0.6
B1: 99mTc-labelled vasoactive intestinal peptide (VIP) (peptide)
peptide: HSDAVFTDNYTRLRKQMAVKKYLNSILN
modifications: ends and bridges not checked; also: 99mTc radiolabel, site and chelator not given here
